According to patent publication US20080009418A1, “Selective Inhibitors” (Alchemia LTD., priority 2004, published 2008):

Columns and labels:
Human Melanocortin (MC3) = biological target: T1, Human Melanocortin (MC3) (Homo sapiens, UniProt P41968); assay: Radioligand binding, human melanocortin MC3 membranes, FlashPlate, [125I]-NDP-αMSH; conditions: compound at 10 μM; for A3: inhibition of radioligand binding, human melanocortin (MC3): [125I]-NDP-αMSH; for A3 radioligand binding inhibition: human melanocortin MC3 membranes
T1 construct: purchased Perkin Elmer Biosignal
Outline: (§1)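 Cloned human receptor membranes were coated onto FlashPlate wells and incubated with radioligand and compound (added from a 0.5 mM DMSO daughter plate) for 1 hour at room temperature in the dark. Scintillation counting gave percent inhibition, with DMSO defining total and reference ligand defining non-specific binding.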

Human κ-Opioid (KOP) = biological target: T2, Human κ-Opioid (KOP) (Homo sapiens, UniProt P41145); assay: Radioligand binding, human κ-opioid (KOP) membranes, filtration, [3H]-Diprenorphine; conditions: compound at 10 μM; for A2: inhibition of radioligand binding, human κ-opioid (KOP): [3H]-Diprenorphine; for A2 radioligand binding inhibition: human κ-opioid (KOP) membranes
T2 construct: purchased Perkin Elmer Biosignal
Outline: (§2)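 Filtration binding on cloned human receptor membranes (1 Unit/well), [125I]-Substance P for NK1 and [3H]-Diprenorphine for KOP, 1 h at room temperature. Filters PEI-presoaked, washed with cold 50 mM Tris-HCl pH 7.4, counted by scintillation; percent inhibition calculated, reference ligand defining non-specific binding.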

Human Melanocortin (MC4) = biological target: T3, Human Melanocortin (MC4) (Homo sapiens, UniProt P32245); assay: Radioligand binding, human melanocortin MC4 membranes, FlashPlate, [125I]-NDP-αMSH; conditions: compound at 10 μM; for A4: inhibition of radioligand binding, human melanocortin (MC4): [125I]-NDP-αMSH; for A4 radioligand binding inhibition: human melanocortin MC4 membranes
T3 construct: purchased Perkin Elmer Biosignal
Outline: as §1

Human opioid (ORL1) = biological target: T4, Human opioid (ORL1) (Homo sapiens, UniProt P41146); assay: Radioligand binding, human opioid ORL1 membranes, FlashPlate, [125I]-Nociceptin; conditions: compound at 10 μM; for A10: inhibition of radioligand binding, human opioid (ORL1): [125I]-Nociceptin; for A10 radioligand binding inhibition: human ORL1 membranes
T4 construct: purchased Perkin Elmer Biosignal
Outline: as §1

Human melanocortin (MC5) = biological target: T5, Human melanocortin (MC5) (Homo sapiens, UniProt P33032); assay: Radioligand binding, human melanocortin MC5 membranes, FlashPlate, [125I]-NDP-αMSH; conditions: compound at 10 μM; for A5: inhibition of radioligand binding, human melanocortin (MC5): [125I]-NDP-αMSH; for A5 radioligand binding inhibition: human melanocortin MC5 membranes
T5 construct: purchased Perkin Elmer Biosignal
Outline: as §1

[1] = biological target: T6, Human melanin-concentrating hormone (MCH1) (Homo sapiens, UniProt Q99705); assay: Radioligand binding, human melanin-concentrating hormone MCH1 membranes, FlashPlate, [125I]-S36057; conditions: compound at 10 μM; for A6: inhibition of radioligand binding, human melanin-concentrating hormone (MCH1): [125I]-S36057; for A6 radioligand binding inhibition: human MCH1 membranes
T6 construct: purchased Perkin Elmer Biosignal
Outline: as §1

Human δ-opioid (DOP) = biological target: T7, Human δ-opioid (DOP) (Homo sapiens, UniProt P41143); assay: Radioligand binding, human δ-opioid (DOP) membranes, FlashPlate, [3H]-Bremazocine; conditions: compound at 10 μM; for A1: inhibition of radioligand binding, human δ-opioid (DOP): [3H]-Bremazocine; for A1 radioligand binding inhibition: human δ-opioid (DOP) membranes
T7 construct: purchased Perkin Elmer Biosignal
Outline: as §1

Mouse urotensin (mUR2) = biological target: T8, Mouse urotensin (mUR2) (Mus musculus, UniProt Q8VIH9); assay: Radioligand binding, mouse urotensin mUR2 membranes, FlashPlate, [125I]-Urotensin II; conditions: compound at 10 μM; for A11: inhibition of radioligand binding, mouse urotensin (mUR2): [125I]-Urotensin II; for A11 radioligand binding inhibition: mouse urotensin mUR2 membranes
T8 construct: purchased Perkin Elmer Biosignal
T8 sequence (Q8VIH9 1-385): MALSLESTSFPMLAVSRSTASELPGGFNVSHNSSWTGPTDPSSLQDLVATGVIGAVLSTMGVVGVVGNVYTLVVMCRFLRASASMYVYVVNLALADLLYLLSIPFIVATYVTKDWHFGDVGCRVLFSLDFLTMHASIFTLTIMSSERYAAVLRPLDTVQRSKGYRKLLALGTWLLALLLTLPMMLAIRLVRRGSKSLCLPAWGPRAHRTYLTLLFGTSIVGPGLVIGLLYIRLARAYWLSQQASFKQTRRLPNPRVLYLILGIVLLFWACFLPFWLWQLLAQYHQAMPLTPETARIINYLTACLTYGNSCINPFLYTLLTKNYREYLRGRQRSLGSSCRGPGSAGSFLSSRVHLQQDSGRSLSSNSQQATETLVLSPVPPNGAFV
Outline: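 Cloned mouse urotensin (mUR2) receptor membranes from Perkin Elmer Biosignal were immobilized in FlashPlate microplates using a proprietary coating. Each well got 19.5 μl buffer, then 0.5 μl of DMSO, reference ligand, or compound. Adding 5 μl of [125I]-Urotensin II, diluted to 5× final concentration in binding buffer, started binding. Plates were sealed with TopSeal-A and incubated 1 hour at room temperature in the dark. Wells were counted for 30 seconds each on a TopCount after a 60-second delay, and percentage inhibition was calculated.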

[2] = biological target: T9, Human neuropeptide Y (NPY-Y1) (Homo sapiens, UniProt P25929); assay: Radioligand binding, human neuropeptide Y NPY-Y1 membranes, FlashPlate, [125I]-PYY; conditions: compound at 10 μM; for A9: inhibition of radioligand binding, human neuropeptide Y (NPY-Y1): [125I]-PYY; for A9 radioligand binding inhibition: human NPY-Y1 membranes
T9 construct: purchased Perkin Elmer Biosignal
T9 sequence (P25929 1-384): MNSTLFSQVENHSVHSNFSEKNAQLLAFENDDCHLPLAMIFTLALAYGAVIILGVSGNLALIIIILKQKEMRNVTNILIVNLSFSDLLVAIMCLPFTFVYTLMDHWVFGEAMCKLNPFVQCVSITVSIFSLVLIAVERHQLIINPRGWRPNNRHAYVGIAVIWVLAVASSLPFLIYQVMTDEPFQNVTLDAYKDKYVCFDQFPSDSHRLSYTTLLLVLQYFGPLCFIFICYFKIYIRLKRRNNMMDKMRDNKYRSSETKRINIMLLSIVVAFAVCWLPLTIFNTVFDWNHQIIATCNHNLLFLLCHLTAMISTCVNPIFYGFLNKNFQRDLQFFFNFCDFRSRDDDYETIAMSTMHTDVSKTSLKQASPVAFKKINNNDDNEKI
Outline: as §1

Human μ-opioid (MOP) = biological target: T10, Human μ-opioid (MOP) (Homo sapiens, UniProt P35372); assay: Radioligand binding, human μ-opioid (MOP) membranes, FlashPlate, [3H]-Naloxone; conditions: compound at 10 μM; for A7: inhibition of radioligand binding, human μ-opioid (MOP): [3H]-Naloxone; for A7 radioligand binding inhibition: human μ-opioid (MOP) membranes
T10 construct: purchased Perkin Elmer Biosignal
Outline: as §1

Human neurokinin (NK1) = biological target: T11, Human neurokinin (NK1) (Homo sapiens, UniProt P25103); assay: Radioligand binding, human neurokinin NK1 membranes, filtration, [125I]-Substance P; conditions: compound at 10 μM; for A8: inhibition of radioligand binding, human neurokinin (NK1): [125I]-Substance P; for A8 radioligand binding inhibition: human neurokinin NK1 membranes
T11 construct: purchased Perkin Elmer Biosignal
Outline: as §2

T4 sequence (P41146 whole entry): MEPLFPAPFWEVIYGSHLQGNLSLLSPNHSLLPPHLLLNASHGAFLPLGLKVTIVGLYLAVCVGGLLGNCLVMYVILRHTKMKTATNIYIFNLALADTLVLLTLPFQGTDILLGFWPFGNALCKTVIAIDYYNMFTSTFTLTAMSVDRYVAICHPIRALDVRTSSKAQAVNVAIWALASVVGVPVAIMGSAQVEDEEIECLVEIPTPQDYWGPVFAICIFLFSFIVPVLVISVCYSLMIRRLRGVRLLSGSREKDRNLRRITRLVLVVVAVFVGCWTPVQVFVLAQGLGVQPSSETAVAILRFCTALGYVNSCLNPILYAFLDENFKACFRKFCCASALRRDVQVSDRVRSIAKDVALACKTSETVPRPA
T5 sequence (P33032 whole entry): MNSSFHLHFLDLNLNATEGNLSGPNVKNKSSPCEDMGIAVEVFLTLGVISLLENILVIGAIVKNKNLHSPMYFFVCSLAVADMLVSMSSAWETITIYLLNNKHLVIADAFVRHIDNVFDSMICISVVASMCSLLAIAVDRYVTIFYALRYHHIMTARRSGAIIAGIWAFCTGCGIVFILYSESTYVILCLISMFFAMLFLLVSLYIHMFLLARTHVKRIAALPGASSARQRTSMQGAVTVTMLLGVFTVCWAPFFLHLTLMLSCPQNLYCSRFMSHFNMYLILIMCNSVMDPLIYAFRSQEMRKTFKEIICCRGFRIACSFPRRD
T6 sequence (Q99705 whole entry): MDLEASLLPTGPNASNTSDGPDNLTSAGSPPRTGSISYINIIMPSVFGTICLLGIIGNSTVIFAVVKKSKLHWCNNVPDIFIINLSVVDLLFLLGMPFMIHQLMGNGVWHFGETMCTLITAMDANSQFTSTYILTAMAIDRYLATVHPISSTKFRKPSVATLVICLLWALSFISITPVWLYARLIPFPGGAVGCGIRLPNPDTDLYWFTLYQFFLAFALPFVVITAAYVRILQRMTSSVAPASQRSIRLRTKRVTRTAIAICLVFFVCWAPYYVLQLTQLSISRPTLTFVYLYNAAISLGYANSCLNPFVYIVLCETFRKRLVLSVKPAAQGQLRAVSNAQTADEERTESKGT
T3 sequence (P32245 whole entry): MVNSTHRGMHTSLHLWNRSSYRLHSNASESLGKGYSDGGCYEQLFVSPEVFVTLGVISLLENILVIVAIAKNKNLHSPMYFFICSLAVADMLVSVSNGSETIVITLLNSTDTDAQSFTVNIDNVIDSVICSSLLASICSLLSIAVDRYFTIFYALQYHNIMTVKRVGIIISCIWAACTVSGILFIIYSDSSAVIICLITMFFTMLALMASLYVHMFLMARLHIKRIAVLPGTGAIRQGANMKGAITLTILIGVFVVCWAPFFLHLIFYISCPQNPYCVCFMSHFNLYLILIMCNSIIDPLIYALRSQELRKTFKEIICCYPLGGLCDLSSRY
T1 sequence (P41968 whole entry): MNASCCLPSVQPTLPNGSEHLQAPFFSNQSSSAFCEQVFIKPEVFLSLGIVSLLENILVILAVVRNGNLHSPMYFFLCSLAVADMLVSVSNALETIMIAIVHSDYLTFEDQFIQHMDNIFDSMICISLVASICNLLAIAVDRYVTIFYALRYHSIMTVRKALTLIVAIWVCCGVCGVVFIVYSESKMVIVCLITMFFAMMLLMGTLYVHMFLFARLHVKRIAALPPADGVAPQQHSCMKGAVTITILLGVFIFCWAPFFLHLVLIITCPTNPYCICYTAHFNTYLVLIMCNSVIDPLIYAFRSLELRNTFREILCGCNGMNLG
T7 sequence (P41143 whole entry): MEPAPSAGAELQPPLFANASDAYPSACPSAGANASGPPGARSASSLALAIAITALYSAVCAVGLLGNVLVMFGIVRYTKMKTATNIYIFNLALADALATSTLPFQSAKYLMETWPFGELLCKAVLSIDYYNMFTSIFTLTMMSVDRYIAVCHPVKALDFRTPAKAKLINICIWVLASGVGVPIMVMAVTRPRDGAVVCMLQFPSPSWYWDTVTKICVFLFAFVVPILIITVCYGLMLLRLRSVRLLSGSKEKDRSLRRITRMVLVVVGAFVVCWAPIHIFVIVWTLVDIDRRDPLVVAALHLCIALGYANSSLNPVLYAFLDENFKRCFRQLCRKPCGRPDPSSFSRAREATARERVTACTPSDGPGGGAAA
T2 sequence (P41145 whole entry): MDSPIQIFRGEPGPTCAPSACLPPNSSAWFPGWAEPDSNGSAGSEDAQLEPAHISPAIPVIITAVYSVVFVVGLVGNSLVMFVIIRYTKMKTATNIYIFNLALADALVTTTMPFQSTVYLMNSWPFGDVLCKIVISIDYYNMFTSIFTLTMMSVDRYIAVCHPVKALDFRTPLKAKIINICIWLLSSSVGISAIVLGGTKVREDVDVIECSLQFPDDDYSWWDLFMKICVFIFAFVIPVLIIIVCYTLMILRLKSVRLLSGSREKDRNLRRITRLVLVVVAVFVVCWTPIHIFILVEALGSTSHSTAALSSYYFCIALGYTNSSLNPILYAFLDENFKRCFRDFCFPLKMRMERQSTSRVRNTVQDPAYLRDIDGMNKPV
T11 sequence (P25103 whole entry): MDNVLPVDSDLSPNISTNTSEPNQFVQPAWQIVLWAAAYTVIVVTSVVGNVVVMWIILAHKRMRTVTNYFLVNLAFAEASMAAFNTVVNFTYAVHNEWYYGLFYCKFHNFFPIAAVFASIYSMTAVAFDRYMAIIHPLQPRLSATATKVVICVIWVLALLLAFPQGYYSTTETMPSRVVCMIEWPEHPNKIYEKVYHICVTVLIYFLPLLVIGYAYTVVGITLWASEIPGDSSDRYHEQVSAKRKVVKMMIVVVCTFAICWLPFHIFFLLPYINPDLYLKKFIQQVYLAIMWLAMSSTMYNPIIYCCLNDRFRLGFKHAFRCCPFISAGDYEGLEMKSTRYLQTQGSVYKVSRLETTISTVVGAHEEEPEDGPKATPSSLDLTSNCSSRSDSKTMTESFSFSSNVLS
T10 sequence (P35372 whole entry): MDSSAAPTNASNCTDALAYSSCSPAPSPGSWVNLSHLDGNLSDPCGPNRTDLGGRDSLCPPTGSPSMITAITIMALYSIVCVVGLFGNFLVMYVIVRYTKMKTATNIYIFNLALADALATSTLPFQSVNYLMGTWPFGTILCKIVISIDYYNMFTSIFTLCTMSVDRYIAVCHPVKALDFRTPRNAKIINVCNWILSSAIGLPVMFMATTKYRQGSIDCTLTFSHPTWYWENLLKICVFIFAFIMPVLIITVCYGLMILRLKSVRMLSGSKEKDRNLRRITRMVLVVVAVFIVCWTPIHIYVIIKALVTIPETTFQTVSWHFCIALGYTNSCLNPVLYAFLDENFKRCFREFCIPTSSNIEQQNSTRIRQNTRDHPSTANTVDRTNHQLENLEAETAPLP

Structure (SMILES)	A3: inhibition of radioligand binding, human melanocortin (MC3) (Human Melanocortin (MC3))	A2: inhibition of radioligand binding, human κ-opioid (KOP) (Human κ-Opioid (KOP))	A4: inhibition of radioligand binding, human melanocortin (MC4) (Human Melanocortin (MC4))	A10: inhibition of radioligand binding, human opioid (ORL1) (Human opioid (ORL1))	A5: inhibition of radioligand binding, human melanocortin (MC5) (Human melanocortin (MC5))	A1: inhibition of radioligand binding, human δ-opioid (DOP) (Human δ-opioid (DOP))	A11: inhibition of radioligand binding, mouse urotensin (mUR2) (Mouse urotensin (mUR2))	A9: inhibition of radioligand binding, human neuropeptide Y (NPY-Y1) [2]	A8: inhibition of radioligand binding, human neurokinin (NK1) (Human neurokinin (NK1))	A3 radioligand binding inhibition (Human Melanocortin (MC3))	A2 radioligand binding inhibition (Human κ-Opioid (KOP))	A4 radioligand binding inhibition (Human Melanocortin (MC4))	A10 radioligand binding inhibition (Human opioid (ORL1))	A5 radioligand binding inhibition (Human melanocortin (MC5))	A6 radioligand binding inhibition [1]	A1 radioligand binding inhibition (Human δ-opioid (DOP))	A11 radioligand binding inhibition (Mouse urotensin (mUR2))	A9 radioligand binding inhibition [2]	A7 radioligand binding inhibition (Human μ-opioid (MOP))	A8 radioligand binding inhibition (Human neurokinin (NK1))	further results
N=C(N)NCCCC(=O)NC1COC(COCc2ccc(Cl)cc2)C(O)C1OCc1ccc(Cl)cc1 (stereo not shown) [compound 542]	− (“−” indicates less than 50% inhibition at 10 μM)	− (“−” indicates less than 50% inhibition at 10 μM)	− (“−” indicates less than 50% inhibition at 10 μM)	− (“−” indicates less than 50% inhibition at 10 μM)	− (“−” indicates less than 50% inhibition at 10 μM)	− (“−” indicates less than 50% inhibition at 10 μM)	− (“−” indicates less than 50% inhibition at 10 μM)	− (“−” indicates less than 50% inhibition at 10 μM)	+ (“+” indicates greater than 50% inhibition at 10 μM)	–	–	–	–	–	–	–	–	–	–	–	A6: inhibition of radioligand binding, human melanin-concentrating hormone (MCH1) [1]: − (“−” indicates less than 50% inhibition at 10 μM); A7: inhibition of radioligand binding, human μ-opioid (MOP) (Human μ-opioid (MOP)): − (“−” indicates less than 50% inhibition at 10 μM)
CO[C@H]1[C@H](O)[C@@H](COCc2ccc(-c3ccccc3)cc2)OC(OCc2ccc(-c3ccccc3)cc2)[C@@H]1NC(=O)CCNC(=N)N (stereo partly shown) [compound 52]	–	–	–	–	–	–	–	–	–	+ (“+” indicates greater than 50% inhibition at 10 μM)	− (“−” indicates less than 50% inhibition at 10 μM)	+ (“+” indicates greater than 50% inhibition at 10 μM)	+ (“+” indicates greater than 50% inhibition at 10 μM)	+ (“+” indicates greater than 50% inhibition at 10 μM)	+ (“+” indicates greater than 50% inhibition at 10 μM)	− (“−” indicates less than 50% inhibition at 10 μM)	− (“−” indicates less than 50% inhibition at 10 μM)	− (“−” indicates less than 50% inhibition at 10 μM)	+ (“+” indicates greater than 50% inhibition at 10 μM)	+ (“+” indicates greater than 50% inhibition at 10 μM)	–
CO[C@H]1[C@H](O)[C@@H](COCc2ccc(Cl)cc2)OC(OCc2ccccc2)[C@@H]1NC(=O)CNC(=N)N (stereo partly shown) [compound 90]	–	–	–	–	–	–	–	–	–	− (“−” indicates less than 50% inhibition at 10 μM)	− (“−” indicates less than 50% inhibition at 10 μM)	− (“−” indicates less than 50% inhibition at 10 μM)	− (“−” indicates less than 50% inhibition at 10 μM)	− (“−” indicates less than 50% inhibition at 10 μM)	− (“−” indicates less than 50% inhibition at 10 μM)	− (“−” indicates less than 50% inhibition at 10 μM)	− (“−” indicates less than 50% inhibition at 10 μM)	− (“−” indicates less than 50% inhibition at 10 μM)	− (“−” indicates less than 50% inhibition at 10 μM)	+ (“+” indicates greater than 50% inhibition at 10 μM)	–
NCCCC(=O)NC1C(OCc2ccc(Cl)cc2)OC(COCc2ccc(Cl)cc2)C(O)C1OCc1ccc2ccccc2c1 (single isomer, unassigned) [compound 499]	+ (“+” indicates greater than 50% inhibition at 10 μM)	− (“−” indicates less than 50% inhibition at 10 μM)	+ (“+” indicates greater than 50% inhibition at 10 μM)	+ (“+” indicates greater than 50% inhibition at 10 μM)	+ (“+” indicates greater than 50% inhibition at 10 μM)	− (“−” indicates less than 50% inhibition at 10 μM)	− (“−” indicates less than 50% inhibition at 10 μM)	− (“−” indicates less than 50% inhibition at 10 μM)	+ (“+” indicates greater than 50% inhibition at 10 μM)	–	–	–	–	–	–	–	–	–	–	–	A6: inhibition of radioligand binding, human melanin-concentrating hormone (MCH1) ([1]; 10 µM): − (“−” indicates less than 50% inhibition at 10 μM); A7: inhibition of radioligand binding, human μ-opioid (MOP) (Human μ-opioid (MOP); 10 µM): − (“−” indicates less than 50% inhibition at 10 μM)
COC[C@H]1OC(OCc2ccc(Cl)cc2)[C@H](NC(=O)CCCNC(=N)N)[C@@H](OCc2ccc(-c3ccccc3)cc2)[C@@H]1O (stereo partly shown) [compound 30]	–	–	–	–	–	–	–	–	–	+ (“+” indicates greater than 50% inhibition at 10 μM)	− (“−” indicates less than 50% inhibition at 10 μM)	+ (“+” indicates greater than 50% inhibition at 10 μM)	− (“−” indicates less than 50% inhibition at 10 μM)	+ (“+” indicates greater than 50% inhibition at 10 μM)	+ (“+” indicates greater than 50% inhibition at 10 μM)	− (“−” indicates less than 50% inhibition at 10 μM)	− (“−” indicates less than 50% inhibition at 10 μM)	− (“−” indicates less than 50% inhibition at 10 μM)	+ (“+” indicates greater than 50% inhibition at 10 μM)	+ (“+” indicates greater than 50% inhibition at 10 μM)	–
